Reference: patent publication US7344727B2, “Process for cleaning bovine teats” (H&S Chemical Company, Inc., priority 2002, dated 2008)

Experiments:
[1] = tested on: bacteria on the udder and teat areas; assay: sanitizing the udder and teat areas with a solution of TCM; assay type: in vivo
Source text: This invention relates to the use of trichloromelamine as an active agent for sanitizing the udder and teat areas of cows. Like bleach TCM produces the Cl+ ion which is capable of killing a wide spectrum of bacteria. […] Solutions of sodium hypochlorite are generally not suitable for use on living tissue. […] The process of this invention is effected by spraying the udder and teat areas of a bovine with a solution of TCM. The process may be further effected by dipping the udder and teat areas in a solution of TCM. The process of this invention effectively kills all bacteria as may be on the udder and teat areas of a bovine in less than one minute.

[2] = bovine, in vivo
Source text: This invention relates to the use of trichloromelamine as an active agent for sanitizing the udder and teat areas of cows. Like bleach TCM produces the Cl+ ion which is capable of killing a wide spectrum of bacteria. […] Solutions of sodium hypochlorite are generally not suitable for use on living tissue.

## trichloromelamine [TCM]
[1]; residual TCM left after treatment
  residual effect on the udder and teat areas: inhibits future bacterial contamination
[1]; soft living tissue treated in accordance with the invention
  time to kill the troublesome bacteria: killed in a matter of seconds
[2]
  effect on treated living tissue: not adversely affected
